We go through two compounds from patent US4990531A, “Derivatives of 1-arylsulphonyl-2-pyrrolidinone and their use as medicaments” (Roussel Uclaf, priority 1988, dated 1991).

One assay has as its target Muscarine receptor 2. As to the kind of experiment: Bonding with cerebral receptors: muscarine receptor 2 (3H quinuclidinyl benzylate, rat brain). Format: binding. To be noted: 0.3 nM 3H quinuclidinyl benzylate, 60 min, 25° C., pH 7.5; read-out: Affinity for muscarine receptor M2 (/3H/Quinuclidinyl benzylate), IC50. The method, then:
The preparation is made from the brains of a male rat weighing 150 to 200 g (Iffa Credo).
The brains are pulverized (Teflon-glass) in a 0.32M solution of sucrose. The homogenate is centrifuged for 10 minutes at 1000 g (0°-4° C.).
The supernatant obtained is recovered and centrifuged at 30,000 g for 15 minutes (0°-4° C.).
The deposit is put in suspension in a buffer Tris 50 mM pH 7.5 and the new homogenate is centrifuged again at 30,000 g for 15 minutes (0°-4° C.).
The deposits after elimination of the supernatant, can be used straight-away or kept for up to one month at -30° C.
For one experiment the deposits are first of all thawed out, if necessary, to ambient temperature and put in suspension, using a Dounce, in a buffer Tris 50 mM pH 7.5. Aliquots of 2 ml are incubated for 60 minutes at 25° C. in the presence of 0.3 nM of ^3 H quinuclidinyl benzylate either alone, or with the product under test, or with benzatropine at 10^-5 M in order to determine the non-specific radioactivity fixed.
At the end of the incubation the incubate tubes are cooled to 4° C. and filtered rapidly on Whatman GF/C filters. The filters are rinsed with 3×5 ml of buffer Tris 50 mM pH 7.5, then measurements are made by liquid scintillation [Henry I Yamamura, Solomon H. Snyder, Proc. Nat. Acad. Sc. (1974) 71 No. 5, 1725-1729).

Assay [1] deals with contractions induced by acetylcholine, isolated ileum. As to the kind of experiment: Antagonism of acetylcholine-induced contractions, isolated guinea-pig ileum. To be noted: acetylcholine 1×10^-6 M; contact time one minute; read-out: Antagonism with various agents (IC50): Ach. The method, then:
(§1) The interaction of the compounds with various receptors was evaluated on the isolated ileum of a guinea-pig according to the following method.
(§2) Segments of the ileum of guinea-pigs of 2.5-3 cm were washed and immediately suspended in a bath containing 10 ml of Tyrode's solution at 37° C. and aerated with a mixture of oxygen (95%) and carbon dioxide (5%). After a stabilization period of at least 30 minutes contractions were recorded, while the preparation was maintained under constant tension of 1 g, by means of a detector connected to a polygraph. The agonistic action was evaluated by leaving the compound in contact with the isolated tissue for a period necessary to show the maximum […]; then it was washed with the Tyrode's solution. The following dose was added only after the preparation had returned to its base line. Arecoline was used as a reference product. The antagonist action was evaluated on the contractions induced by acetylcholine (1×10^-6 M), histamine (1×10^-5 M), serotonine (1×10^-6 M) and barium chloride (2×10^-4 M). […] The contact time before adding the agonist was one minute.
(§3) For each compound the does response curves are obtained with 4 to 6 different concentrations and 3 to 5 independent tests. The agonist activity is expressed by pD2 (negative logarithm of the dose which produces 50% of the maximum effect).

Another assay has as its target opiated receptor kappa (Homo sapiens, UniProt P41145). As to the kind of experiment: Affinity for other receptors: opiated receptor kappa. Conditions: negligible affinity. It is filed as binding.
Assay [2] concerns contractions induced by histamine, isolated ileum. The assay is described as follows: Antagonism of histamine-induced contractions, isolated guinea-pig ileum. To be noted: histamine 1×10^-5 M; contact time one minute; read-out: Antagonism with various agents (IC50): Istam. The method, then:
as §1, §2, §3

Assay [3] deals with serotonine 5 HT2 receptor (Homo sapiens, UniProt P28223). The assay is described as follows: Affinity for other receptors: serotonine 5 HT2. It is filed as binding. To be noted: negligible affinity.
The subject of the next assay is isolated ileum. The assay is described as follows: Agonist action on isolated guinea-pig ileum. To be noted: negative logarithm of the dose producing 50% of maximum effect. As for the experimental part: as §1, §2, §3
For assay [4], the system named is contractions induced by acetylcholine, isolated colon. The assay is described as follows: Antagonism of acetylcholine-induced contractions, isolated colon of rat. Conditions: acetylcholine 3×10^-6 M; contact 3 minutes. The method, then:
The remarkable antagonist action of the compounds of the invention was confirmed on the isolated colon of rats. In this test it was established whether the antagonist activity was of competitive or non-competitive type.
The following method was used: segments of the colon of rats of about 2.5 cm are washed and suspended in an insulated bath containing 10 ml of a solution of De Jalon having the following composition: (mM): NaCl 154; KCl 5.7; CaCl2 0.27; NaHCO3 5.9 and glucose 2.5. The temperature of the bath is maintained at 32° C. In these conditions, while maintaining the preparation under a tension of 1 g, the spontaneous activity of the colon is minimal. After a stabilization period of at least 30 minutes, the tension variations are recorded using an isometric transducer connected to a recorder. A series of tests was carried out to evaluate the antagonist activity in relation to the contractions induced by a maximum dose of acetylcholine. (3×10^-6 M).
The compounds are left in contact with the preparation for 3 minutes before adding acetylcholine.
Atropine was used as a reference product. For each compound the dose-response curves are obtained with 4 to 6 different concentrations and 3 to 5 independent tests.

Another assay concerns the target adrenoreceptor alpha 1. As to the kind of experiment: Affinity for other receptors: adrenoreceptor alpha 1. It is filed as binding. Conditions: negligible affinity.
In assay [5] the test system is contractions induced by serotonine, isolated ileum. As to the kind of experiment: Antagonism of serotonine-induced contractions, isolated guinea-pig ileum. To be noted: serotonine 1×10^-6 M; contact time one minute; read-out: Antagonism with various agents (IC50): Seroton. The method, then: as §1, §2, §3
The next assay concerns the target benzodiazepine receptor. The assay is described as follows: Affinity for other receptors: benzodiazepines. Conditions: negligible affinity. Format: binding.
The target of a further assay is adrenoreceptor beta 2 (Homo sapiens, UniProt P07550). As to the kind of experiment: Affinity for other receptors: adrenoreceptor beta 2. Format: binding. To be noted: negligible affinity.
The next assay deals with GABA receptor. As to the kind of experiment: Affinity for other receptors: GABA. It is filed as binding. To be noted: negligible affinity.
Another assay concerns the target dopamine receptor. As to the kind of experiment: Affinity for other receptors: dopamine. Conditions: negligible affinity. Format: binding.
A further assay concerns the target T1, Muscarine receptor 1 (Rattus norvegicus, UniProt P08482).
T1 construct: prepared from cortex removed from the brains of a male rat; from tissue; host or cells: rat cerebral cortex homogenate (male rat, Iffa Credo)
The assay is described as follows: Bonding with cerebral receptors: muscarine receptor 1 (3H pirenzepine, rat cortex). Conditions: 0.25 nM 3H pirenzepine, 60 min, 25° C., pH 7.4; read-out: Affinity for muscarine receptor M1 (/3H/Pirenzepine), IC50. It is filed as binding. The method, then:
This is prepared from cortex removed from the brains of a male rat weighing 150 to 200 g, (Iffa Credo) pulverized with Polytron in a buffer Na/K 10 mM pH 7.4. After incubation (aliquots of 0.5 ml of homogenate) for 60 minutes at 25° C. in the presence of 0.25 nM of ^3 H pirenzepine, either alone, or with the product under test, or with an excess of pirenzepine at 10^-5 M (in order to determine the non-specific radioactivity fixed), the incubates are cooled and filtered.
The filtration is carried out on Whatman GF/C filters prewashed in a solution of polyethylene-imine at 0.05%. The filters are rinsed with 3×5 ml of phosphate Na/K buffer 10 mM pH 7.4, then measurements are made by liquid scintillation.

serotonine 5 HT2 receptor, sequence (P28223 whole entry): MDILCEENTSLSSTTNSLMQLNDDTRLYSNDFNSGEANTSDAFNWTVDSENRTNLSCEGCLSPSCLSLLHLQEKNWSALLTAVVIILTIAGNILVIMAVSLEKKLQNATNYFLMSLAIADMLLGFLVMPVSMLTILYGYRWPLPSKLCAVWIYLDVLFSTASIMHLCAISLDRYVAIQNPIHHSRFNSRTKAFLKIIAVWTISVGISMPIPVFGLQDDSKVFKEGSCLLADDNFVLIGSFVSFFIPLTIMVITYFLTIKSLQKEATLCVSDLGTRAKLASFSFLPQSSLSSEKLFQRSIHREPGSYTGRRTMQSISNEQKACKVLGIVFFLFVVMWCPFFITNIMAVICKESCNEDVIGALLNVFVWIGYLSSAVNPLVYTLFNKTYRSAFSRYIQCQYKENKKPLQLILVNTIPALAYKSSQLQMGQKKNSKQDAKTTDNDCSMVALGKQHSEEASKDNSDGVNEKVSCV
adrenoreceptor beta 2, sequence (P07550 whole entry): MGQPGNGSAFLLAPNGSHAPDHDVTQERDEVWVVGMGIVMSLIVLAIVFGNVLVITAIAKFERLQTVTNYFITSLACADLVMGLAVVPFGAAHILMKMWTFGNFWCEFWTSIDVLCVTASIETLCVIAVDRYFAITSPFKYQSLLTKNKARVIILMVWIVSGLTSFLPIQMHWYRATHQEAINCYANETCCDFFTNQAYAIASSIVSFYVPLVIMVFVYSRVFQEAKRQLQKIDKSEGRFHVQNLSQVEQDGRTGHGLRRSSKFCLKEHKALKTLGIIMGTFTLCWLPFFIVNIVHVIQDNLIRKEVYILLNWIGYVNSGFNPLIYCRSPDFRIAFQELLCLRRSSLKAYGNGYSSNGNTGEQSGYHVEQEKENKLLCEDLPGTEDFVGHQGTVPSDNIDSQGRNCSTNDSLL
opiated receptor kappa, sequence (P41145 whole entry): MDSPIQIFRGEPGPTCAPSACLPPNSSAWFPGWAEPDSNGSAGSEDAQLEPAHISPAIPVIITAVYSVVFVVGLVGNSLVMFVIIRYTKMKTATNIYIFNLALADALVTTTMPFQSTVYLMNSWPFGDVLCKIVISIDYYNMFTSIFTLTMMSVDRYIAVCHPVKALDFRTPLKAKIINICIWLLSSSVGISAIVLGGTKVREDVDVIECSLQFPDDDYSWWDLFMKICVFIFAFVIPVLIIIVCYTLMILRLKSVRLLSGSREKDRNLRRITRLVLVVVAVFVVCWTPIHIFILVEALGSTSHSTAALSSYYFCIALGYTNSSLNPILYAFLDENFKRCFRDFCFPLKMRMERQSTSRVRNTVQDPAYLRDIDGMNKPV
T1 sequence (P08482 whole entry): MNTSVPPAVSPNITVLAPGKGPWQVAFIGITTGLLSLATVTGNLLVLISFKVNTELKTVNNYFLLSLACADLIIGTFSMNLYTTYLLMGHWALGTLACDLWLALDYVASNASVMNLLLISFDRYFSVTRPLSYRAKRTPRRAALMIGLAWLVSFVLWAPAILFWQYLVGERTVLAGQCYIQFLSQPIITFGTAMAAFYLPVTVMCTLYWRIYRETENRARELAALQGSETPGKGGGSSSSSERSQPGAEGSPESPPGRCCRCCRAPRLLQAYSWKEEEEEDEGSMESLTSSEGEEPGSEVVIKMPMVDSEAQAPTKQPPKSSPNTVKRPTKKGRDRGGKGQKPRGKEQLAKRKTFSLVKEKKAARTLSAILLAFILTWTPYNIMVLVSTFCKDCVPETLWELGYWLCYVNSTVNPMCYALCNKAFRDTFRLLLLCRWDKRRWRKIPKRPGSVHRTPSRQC

On to `CC(C)(C)c1ccc(S(=O)(=O)N2CCCC2=O)cc1` [Example 1, 1-(4-tert-butylbenzenesulphonyl)-2-pyrrolidinone], for which the IC50 on Muscarine receptor 2 was 1.3 µM; in [1], 0.064 µM; against opiated receptor kappa, 5 to 10 µM; in assay [2], > 100 µM; in assay [3], 5 to 10 µM; in [4], 0.28 µM. Besides, the IC50 was 5 to 10 µM on adrenoreceptor alpha 1; > 100 µM in assay [5]; 5 to 10 µM against benzodiazepine receptor; 5 to 10 µM against adrenoreceptor beta 2; 5 to 10 µM on GABA receptor; 5 to 10 µM on dopamine receptor. For the same compound, the IC50 at Muscarine receptor 1 was 0.13 µM. The “Agonist Action (pD2)” value in the assay with isolated ileum is on record as < 4.

As to `CCN(CC)c1ccc(S(=O)(=O)N2CCCC2=O)cc1` [Example 2, 1-[4-(diethylamino)benzenesulphonyl]-2-pyrrolidinone], the IC50 is 1.3 µM on Muscarine receptor 2; 0.062 µM in assay [1]; 5 to 10 µM at opiated receptor kappa; > 100 µM in [2]; 5 to 10 µM in [3]; 0.16 µM in [4]. The IC50 is 5 to 10 µM on adrenoreceptor alpha 1; > 100 µM in assay [5]; 5 to 10 µM against benzodiazepine receptor; 5 to 10 µM at adrenoreceptor beta 2; 5 to 10 µM on GABA receptor; 5 to 10 µM at dopamine receptor. The IC50 on Muscarine receptor 1 was 0.098 µM. Moreover, in the assay on isolated ileum, the “Agonist Action (pD2)” value is < 4.
